Results taken from patent US10670605B2, “Cysteine reactive probes and uses thereof” (The Scripps Research Institute, priority 2015, dated 2020).
Values belong to the molecule of their own block, whether it stands above or below them.

Legend:
Test in all cases: Competitive isoTOP-ABPP, cell lysates;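 for isoTOP-ABPP reactivity profile ratio, O00170 C122: Heavy/light ratio DMSO over fragment-treated so higher means more cysteine engagement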;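 for isoTOP-ABPP reactivity profile ratio, P68036 C86: Heavy/light ratio DMSO over fragment-treated so higher means more cysteine engagement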
Format in all cases: binding
PDIA6 C55 (Q15084) = molecular target: T1, PDIA6 C55 (Q15084) (Homo sapiens, UniProt Q15084); conditions: 500 μm
T1 sequence (Q15084 20-440): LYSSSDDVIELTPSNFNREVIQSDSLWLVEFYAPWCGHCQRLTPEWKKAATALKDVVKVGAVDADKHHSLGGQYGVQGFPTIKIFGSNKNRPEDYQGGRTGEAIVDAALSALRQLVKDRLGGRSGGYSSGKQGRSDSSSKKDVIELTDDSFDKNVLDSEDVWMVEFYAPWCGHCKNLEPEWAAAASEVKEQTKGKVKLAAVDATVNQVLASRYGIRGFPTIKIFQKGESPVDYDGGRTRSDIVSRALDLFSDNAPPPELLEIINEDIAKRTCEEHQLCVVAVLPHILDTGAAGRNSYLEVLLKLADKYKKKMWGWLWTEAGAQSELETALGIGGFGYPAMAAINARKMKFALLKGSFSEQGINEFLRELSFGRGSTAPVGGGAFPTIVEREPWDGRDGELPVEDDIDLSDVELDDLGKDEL

SMARCC2 C145 (Q8TAQ2) = SMARCC2 C145 (Q8TAQ2) (Homo sapiens, UniProt Q8TAQ2); conditions: 500 μm
DCUN1D1 C115 (Q96GG9) = DCUN1D1 C115 (Q96GG9) (Homo sapiens, UniProt Q96GG9); conditions: 500 μm
SAMHD1 C522 (Q9Y3Z3) = SAMHD1 C522 (Q9Y3Z3) (Homo sapiens, UniProt Q9Y3Z3); conditions: 500 μm; for isoTOP-ABPP reactivity ratio, Q9Y3Z3_C522: in-vitro_ramos_231
STAT3 C259 (P40763) = STAT3 C259 (P40763) (Homo sapiens, UniProt P40763); conditions: 500 μm
UBE2L3 C86 (P68036) = UBE2L3 C86 (P68036) (Homo sapiens, UniProt P68036); conditions: 500 μm;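 for isoTOP-ABPP reactivity profile ratio, P68036 C86: Heavy/light ratio DMSO over fragment-treated so higher means more cysteine engagement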
ACAT1 C196 (P24752) = molecular target: T2, ACAT1 C196 (P24752) (Homo sapiens, UniProt P24752); conditions: 500 μm
T2 sequence (P24752 34-427): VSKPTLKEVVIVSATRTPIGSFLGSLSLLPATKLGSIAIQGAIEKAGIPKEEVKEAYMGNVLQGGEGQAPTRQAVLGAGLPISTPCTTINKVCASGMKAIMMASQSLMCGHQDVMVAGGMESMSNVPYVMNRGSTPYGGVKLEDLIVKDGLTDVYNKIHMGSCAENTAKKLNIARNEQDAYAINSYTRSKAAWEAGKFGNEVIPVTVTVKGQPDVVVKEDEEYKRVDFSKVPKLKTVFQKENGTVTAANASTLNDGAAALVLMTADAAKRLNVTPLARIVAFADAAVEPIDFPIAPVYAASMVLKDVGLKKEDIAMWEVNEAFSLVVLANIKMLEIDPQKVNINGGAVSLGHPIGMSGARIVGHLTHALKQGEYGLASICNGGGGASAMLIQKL

ACAT1 C413 (P24752) = molecular target: T3, ACAT1 C413 (P24752) (Homo sapiens, UniProt P24752); conditions: 500 μm
T3 sequence (P24752 34-427): T2 sequence (P24752 34-427)

ACAT1 C126 (P24752) = molecular target: T4, ACAT1 C126 (P24752) (Homo sapiens, UniProt P24752); conditions: 500 μm
T4 sequence (P24752 34-427): T2 sequence (P24752 34-427)

AIP C122 (O00170) = molecular target: T5, AIP C122 (O00170) (Homo sapiens, UniProt O00170); conditions: 500 μm;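 for isoTOP-ABPP reactivity profile ratio, O00170 C122: Heavy/light ratio DMSO over fragment-treated so higher means more cysteine engagement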
T5 sequence (O00170 1-330): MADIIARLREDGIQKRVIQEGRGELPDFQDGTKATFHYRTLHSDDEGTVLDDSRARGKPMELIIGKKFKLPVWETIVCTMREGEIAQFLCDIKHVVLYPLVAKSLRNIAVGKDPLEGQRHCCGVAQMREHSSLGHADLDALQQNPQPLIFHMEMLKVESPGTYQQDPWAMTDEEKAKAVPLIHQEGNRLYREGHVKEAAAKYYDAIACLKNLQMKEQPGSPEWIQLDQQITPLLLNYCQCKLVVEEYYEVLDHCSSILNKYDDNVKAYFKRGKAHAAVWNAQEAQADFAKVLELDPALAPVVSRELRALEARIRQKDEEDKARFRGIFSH

isoTOP-ABPP reactivity ratio, Q15084_C55 (PDIA6 C55 (Q15084); in-vitro_ramos_231): 0.8
isoTOP-ABPP reactivity ratio, Q8TAQ2_C145 (SMARCC2 C145 (Q8TAQ2); in-vitro_ramos): 1.1
isoTOP-ABPP reactivity ratio, Q8TAQ2_C145 (SMARCC2 C145 (Q8TAQ2); in-vitro_ramos_231): 0.9
isoTOP-ABPP reactivity ratio, Q96GG9_C115 (DCUN1D1 C115 (Q96GG9); in-vitro_ramos): 0.9
isoTOP-ABPP reactivity ratio, Q9Y3Z3_C522 (SAMHD1 C522 (Q9Y3Z3)): 0.8
isoTOP-ABPP reactivity ratio, P40763_C259 (STAT3 C259 (P40763); in-vitro_ramos): 1.4
isoTOP-ABPP reactivity ratio, P68036_C86 (UBE2L3 C86 (P68036); in-vitro_ramos): 0.9
isoTOP-ABPP reactivity ratio, P68036_C86 (UBE2L3 C86 (P68036); in-vitro_ramos_231): 0.8
isoTOP-ABPP reactivity ratio, P24752_C196 (ACAT1 C196 (P24752); in-vitro_ramos_231): 0.8
isoTOP-ABPP reactivity ratio, P24752_C413 (ACAT1 C413 (P24752); in-vitro_ramos_231): 0.9
isoTOP-ABPP reactivity ratio, P24752_C126 (ACAT1 C126 (P24752); in-vitro_ramos_231): 0.9
SMILES: C=CC(=O)Nc1cc(C)c(Br)cc1C [compound 40]

isoTOP-ABPP reactivity ratio, Q15084_C55 (PDIA6 C55 (Q15084); in-vitro_ramos): 0.8
isoTOP-ABPP reactivity ratio, Q15084_C55 (PDIA6 C55 (Q15084); in-vitro_ramos_231): 0.9
isoTOP-ABPP reactivity ratio, Q8TAQ2_C145 (SMARCC2 C145 (Q8TAQ2); in-vitro_ramos): 2.8
isoTOP-ABPP reactivity ratio, Q8TAQ2_C145 (SMARCC2 C145 (Q8TAQ2); in-vitro_ramos_231): 1.8
isoTOP-ABPP reactivity ratio, Q9Y3Z3_C522 (SAMHD1 C522 (Q9Y3Z3)): 0.9
isoTOP-ABPP reactivity ratio, P40763_C259 (STAT3 C259 (P40763); in-vitro_ramos_231): 0.9
isoTOP-ABPP reactivity ratio, O00170_C122 (AIP C122 (O00170); in-vitro_ramos): 1.0
isoTOP-ABPP reactivity ratio, O00170_C122 (AIP C122 (O00170); in-vitro_ramos_231): 1.1
isoTOP-ABPP reactivity ratio, P68036_C86 (UBE2L3 C86 (P68036); in-vitro_ramos): 7.9
isoTOP-ABPP reactivity ratio, P68036_C86 (UBE2L3 C86 (P68036); in-vitro_ramos_231): 9.8
isoTOP-ABPP reactivity ratio, P24752_C196 (ACAT1 C196 (P24752); in-vitro_ramos): 1.0
isoTOP-ABPP reactivity ratio, P24752_C196 (ACAT1 C196 (P24752); in-vitro_ramos_231): 1.3
isoTOP-ABPP reactivity ratio, P24752_C413 (ACAT1 C413 (P24752); in-vitro_ramos): 0.9
isoTOP-ABPP reactivity ratio, P24752_C413 (ACAT1 C413 (P24752); in-vitro_ramos_231): 0.8
isoTOP-ABPP reactivity ratio, P24752_C126 (ACAT1 C126 (P24752); in-vitro_ramos): 0.9
isoTOP-ABPP reactivity ratio, P24752_C126 (ACAT1 C126 (P24752); in-vitro_ramos_231): 1.0
SMILES: Cc1ccc(C=C(C#N)C(=O)NCCN2CCOCC2)cc1 [compound 41]

isoTOP-ABPP reactivity profile ratio, Q15084_C55 (PDIA6 C55 (Q15084); in-vitro_ramos): 1.0
isoTOP-ABPP reactivity profile ratio, Q15084_C55 (PDIA6 C55 (Q15084); in-vitro_ramos_231): 0.9
isoTOP-ABPP reactivity profile ratio, Q8TAQ2_C145 (SMARCC2 C145 (Q8TAQ2); in-vitro_ramos): 1.2
isoTOP-ABPP reactivity profile ratio, Q96GG9_C115 (DCUN1D1 C115 (Q96GG9); in-vitro_ramos): 0.9
isoTOP-ABPP reactivity profile ratio, Q96GG9_C115 (DCUN1D1 C115 (Q96GG9); in-vitro_ramos_231): 1.0
isoTOP-ABPP reactivity profile ratio, Q9Y3Z3_C522 (SAMHD1 C522 (Q9Y3Z3); in-vitro_ramos): 0.7
isoTOP-ABPP reactivity profile ratio, P40763_C259 (STAT3 C259 (P40763); in-vitro_ramos): 1.9
isoTOP-ABPP reactivity profile ratio, O00170_C122 (AIP C122 (O00170); in-vitro_ramos): 0.9
isoTOP-ABPP reactivity profile ratio, P68036_C86 (UBE2L3 C86 (P68036); in-vitro_ramos): 1.0
isoTOP-ABPP reactivity profile ratio, P68036_C86 (UBE2L3 C86 (P68036); in-vitro_ramos_231): 1.0
isoTOP-ABPP reactivity profile ratio, P24752_C196 (ACAT1 C196 (P24752); in-vitro_ramos): 0.9
isoTOP-ABPP reactivity profile ratio, P24752_C196 (ACAT1 C196 (P24752); in-vitro_ramos_231): 1.2
isoTOP-ABPP reactivity profile ratio, P24752_C413 (ACAT1 C413 (P24752); in-vitro_ramos_231): 1.0
SMILES: C=CC(=O)N1CCC(Cc2ccccc2)CC1 [compound 53]
